Here are results for three compounds from paper PMC6274375, “Two New Pentacyclic Triterpene Saponins from the Leaves of Akebia trifoliata” (Molecules, 2016).

Data set [1] is described as follows: MTT cytotoxicity assay, HepG2 cells. The data set is classed as cell-based. Particulars: human, mean ± SD (n = 3). The protocol: (§1) Compounds 1–7 were testeded for their cytotoxity against A549 (human lung adenocarcinoma), HeLa (human cervical carcinoma) and HepG2 (human liver hepatocellular carcinoma) cell lines. The three tumor cell lines were obtained from Kunming Institute of Zoology, Chinese Academy of Sciences. The cytotoxic activity of tested chemicals were assayed according to the MTT method using 96 well plates. Briefly, the cells were cultured in RPMI-1640 medium, supplemented with 10% fetal bovine serum in a humidified atmosphere with 5% CO2 at 37 °C. 100 μL adherent cells at the density of 5 × 10^4 cell/mL was seeded into each well of 96-well cell culture plates and incubated in 5% CO2 at 37 °C for 24 h to form a monolayer on the flat bottoms. Then, the supernatant per well was removed and subsequently added with 100 μL fresh medium and 100 μL medium containing a test compound. The plate was then incubated in 5% CO2 at 37 °C. After 72 h, 20 μL of 5 mg/mL MTT in DMSO was added into each well and incubated for 4 h. The supernatant per well was carefully removed and 150 μL DMSO was added. The plate was then vortex shaken for 15 min to dissolve blue formazan crystals. The optical density (OD) of each well was measured on a Genois microplate reader (Tecan GENios, Männedorf, Switzerland) at the wavelength of 570 nm. All experiments were performed in triplicate and adriamycin was used as a positive control. In each experiment, each of the tumor cell lines was exposed to the test compound at concentrations 50, 25, 12.5, 6.25, 3.125, 1.5625 µg/mL. The inhibitory rate of cell growth was calculated according to the following formula: Inhibition rate (%) = (ODcontrol − ODtreated)/ODcontrol × 100%. IC50 values were calculated by SPSS 16.0 statistic software. The values were based on three individual experiments and expressed as means ± standard deviation (SD).

Data set [2] is described as follows: MTT cytotoxicity assay, HeLa cells. Format: cell-based. The conditions noted are these: human, mean ± SD (n = 3). Here is the method:
as §1
On the technique in general: Tetrazolium dyes change colour on reduction, which living cells bring about.

A further data set concerns the target α-glucosidase. As to the kind of experiment: α-Glucosidase inhibition assay (PNPG substrate). Format: biochemical. The conditions noted are these: pH 6.8, 37 °C, read-out: α-glucosidase inhibitory activity IC50. The protocol: The a-glucosidase inhibitory activity of 1–7 were determined spectrophotometrically in a 96-well microtiter plate based on p-nitrophenyl-α-D-glucopyranoside (PNPG) as a substrate following the method described in literature with slight modifications. In brief, α-glucosidase (20 μL, 0.8 U/mL) and various concentrations (500, 250, 125, 62.5, 31.25, 15.625 µg/mL) of tested compounds (120 μL) in 67 mM phosphate buffer (pH 6.8) were mixed at room temperature for 10 min. Reactions were initiated by addition of 5.0 mM PNPG (20 μL). The reaction mixture was incubated for 15 min at 37 °C in a final volume of 160 μL. Then, 0.2 M Na2CO3 (80 μL) was added to the incubation solution to stop the reaction. The activities were detected in a 96-well plate, and the absorbance was determined at 405 nm (for p-nitrophenol). The negative blank was set by adding phosphate buffer instead of the sample via the same way as the test. […] The blank was set by adding phosphate buffer instead of the α-glucosidase using the same method. Inhibition rate (%) = [(ODnegative control − ODblank) − (ODtest − ODtest blank)]/(ODnegative blank − ODblank) × 100%. IC50 values of the samples were calculated using the Microsoft Office Excel soft.

For data set [3], the system named is human tumor A549, HeLa and HepG2 cell lines. As to the kind of experiment: MTT cytotoxicity, summary statements over the three cell lines. The data set is classed as cell-based. The conditions noted are these: A549, HeLa and HepG2. The protocol:
as §1

Test in data set [4]: as above
Format: cell-based, human. Particulars: human, A549, HeLa and HepG2 cells (range over the three cell lines). The protocol:
as §1

Data set [5] is described as follows: MTT cytotoxicity assay, A549 cells. Format: cell-based. The conditions noted are these: human, mean ± SD (n = 3). The protocol:
as §1

Where [6] appears, read: range over A549, HeLa and HepG2 and over both compounds, read-out: Cytotoxicity IC50 values, range over all three cancer cell lines.
The mark [7] stands for this setting: range over the three cell lines and over both compounds, as given in abstract, read-out: Cytotoxicity IC50 values, range over A549, HeLa and HepG2.

In general, IC50 refers to the midpoint of a concentration-inhibition curve. As for `CC1(C)CC[C@]2(C(=O)O)CC[C@]3(C)C(=CCC4[C@@]5(C)C[C@@H](O)[C@H](O)[C@@](C)(C=O)C5CC[C@]43C)C2C1` (stereo partly drawn) [Compound 5, 2α,3β-dihydroxy-23-oxo-olean-12-en-28-oic acid], the IC50 at 72 h in data set [1] is 38 ± 7.57 µM; in data set [2], 22.7 ± 1.96 µM; in data set [4] (setting [6]), 22.7 to 38.1 µM; in data set [4] (setting [7]) it was 23 to 38 µM; in data set [5], 30.2 ± 4.55 µM. For the same compound, the IC50 on α-glucosidase was 47 µM. The “In vitro cytotoxicity, result in words” value in data set [3] was “moderate in vitro cytotoxicity”.

Take `C=C1CC[C@]2(C(=O)O)CC[C@]3(C)C(=CCC4[C@@]5(C)C[C@@H](O)[C@H](O)[C@@](C)(C=O)C5CC[C@]43C)C2C1` (stereo partly drawn) [Compound 6, 2α,3β-dihydroxy-23-oxo-30-norolean-12,20 (29)-dien-28-oic acid]: the IC50 at 72 h in data set [1], in data set [2] and in data set [5] was > 100 µM throughout. At α-glucosidase, the IC50 was 220 µM.

For the compound `CC1(C)CC[C@]2(C(=O)O)CC[C@]3(C)C(=CC[C@@H]4[C@@]5(C)C[C@@H](O)[C@H](O)[C@@](C)(CO)[C@@H]5CC[C@]43C)[C@@H]2C1` [Compound 7, arjunolic acid], the IC50 at 72 h in data set [1] is 38.1 ± 1.63 µM; in data set [2], 24.4 ± 1.49 µM; in data set [4] (setting [6]), 22.7 to 38.1 µM; in data set [4] (setting [7]), 23 to 38 µM; in data set [5], 33.6 ± 3.13 µM. The half-maximal inhibitory concentration (IC50) on α-glucosidase was 40 µM. Also, the “In vitro cytotoxicity, result in words” value in data set [3] was “moderate in vitro cytotoxicity”.
